Laboratory results taken from US5843916A, “Cyclic amp analogues, individually and in pairs, to inhibit neoplastic cell growth” (priority 1994, dated 1998).
pIC50: −log10 of the molar value. Entries after “also recorded” stand apart in the source; their conditions may differ. Read-outs that look alike come from different tables or passages of the source.

Assays:
[1] = system: cultured human fibroblasts; settings: cited from earlier work
[2] = system: four leukemic cell lines (HL-60, K-562, myc-K562, Molt-4); experiment: Growth inhibition of leukemic cell lines; type: cell-based, human; settings: Homo sapiens; leukemic cell lines, range
DMBA-1 mammary carcinoma = experiment: Growth of transplantable mammary carcinoma, pellet (Table 5); type: in vivo, rat; settings: for Change in mean tumor volume (cm^3) / Change in mean tumor volume (%): pellet with 10 mg analogue, day 7; for Change in mean tumor volume (%): none = 100
Description: (§1) Based on the findings with the […] leukemia model, the efficacy of the 8-Cl-cAMP-Na+infusions were evaluated in advanced-stage human tumor xenograft models. Tumor fragments of approximately 14 mg were implanted subcutaneously in athymic CD-1 female mice and seven day intraperitoneal infusions of the cyclic nucleotide were initiated three weeks later when mean tumor weights had reached 300-400 mg. Tumor measurements were recorded on the initial day of treatment (staging day) and one day after treatment was completed (staging day +7), and were used to calculate changes in tumor weights.
DMBA-1, a variant of primary hormonedependent DMBA tumor,
hormoneindependent and transplantable.
(§2) 8Cl-cAMP and DBcAMP were given as a 20mg pellet consisting of 10 mg of […]

NMU-2 mammary carcinoma = experiment: Growth of metastatic mammary carcinoma, pellet (Table 5); type: in vivo, rat; settings: for Change in mean tumor volume (cm^3) / Change in mean tumor volume (%): pellet with 10 mg analogue, day 7; for Change in mean tumor volume (%): none = 100
Description: as §1
NMU2, a variant of primary hormoneresponsive NMU tumor,
hormoneindependent, transplantable, and metastatic.
as §2

MCF-7 [3] = experiment: Growth of MCF-7 cells (Tables 3, 11); type: cell-based; settings: Homo sapiens, MCF7, 72 h
Description: All breast cancer cell lines were grown in IMEM supplemented with 10% fetal bovine serum, HEPES 20 mM, penicillin-streptomycin, and extra glutamine. Colon carcinoma cell lines were grown in EMEM supplemented with 10% FBS, EMEM, NEAA, HEPES 20 mM, extra glutamine, and penicillin-streptomycin. The cells were grown at 37° C. in humidified incubators in an atmosphere of 5% CO2.
For cell growth experiments, 2-3×10^5 cells/60 mm dish were seeded, and 24 hours later (Day 0), the medium was removed, and fresh medium and the additives were added then and every 48 hours thereafter. The compounds of the present invention were added using 100X concentrated stock solutions. At desired times, cell counts in duplicate were performed on a Coulter counter after harvesting the cells with gentle trypsinization.

HL-60 = experiment: Growth inhibition of leukemic cells (Table 12); type: cell-based; settings: Homo sapiens
[4] = system: mammary carcinomas induced by DMBA; settings: treatment of hosts; cited from earlier work
[5] = system: spindle cell sarcoma with multiple metastasis; settings: cited from earlier work
neuroblastoma cells = settings: two contradicting studies; cited from earlier work
MCF-7 [6] = experiment: Cell cycle analysis by flow cytometry (Table 3); type: cell-based, human; settings: 10 μM; 3 days
Description: DNA histograms were generated on FACS II by using the DNA intercalating dye propidium iodide as described by Braylan et al. in Cytometry 2: 337-343, 1982. The percentage of cells in each cycle phase was calculated by using a PDP-11/34 computer and software as described by Neckers et al., Mol. Cell. Biol. 6: 4244-4250, 1986.
Breast (MCF-7, MDA-MB-231) and colon (LS-174T) cancer cells in log
phase (untreated control) and 3 days after treatment with 8-C1-cAMP
(10 μM), N^6 -benzyl-cAMP (35 μM), and 8-Cl-adenosine (5
were analyzed for DNA content by flow cytometric analysis as described
below. Similar results were obtained with other breast and colon cancer

[7] = biological target: T1, Protein kinase type I (cAKI) (Oryctolagus cuniculus, UniProt G1TDN4); experiment: Protein kinase activation (Table 15); type: biochemical, rabbit (skeletal muscle); settings: half-maximum activation; U. M.: unmeasurable
T1 construct: prepared from rabbit skeletal muscle and bovine heart; from tissue; host or cells: rabbit skeletal muscle
Description: (§3) ATP to Kemptide as described by Ogreid et al., Eur. J. Biochem. 150: 219-227 (1985).
(§4) Protein kinases types I (cAKI) and II (cAKII) were
(§5) prepared from rabbit skeletal muscle and bovine heart,
(§6) respectively, as described in D.o slashed.skeland et al. (J. Biol.
(§7) of the protein kinase in Ogreid et al. (Eur. J. Biochem.

[8] = system: RIα and RIIβ isoforms of the cAMP receptor protein; protein kinase type I and II; settings: cited from earlier work
L1210 leukemia = experiment: Life span of L1210-inoculated BDF1 mice (Table 7)
[9] = system: HL-60 human leukemia cells; experiment: Growth inhibition of HL-60 leukemia cells (Example 3, Table 16); type: cell-based; settings: for pIC50: Homo sapiens
Procedure, shortened: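 HL-60 cells were grown in suspension in RPMI 1640 with 10% heat-inactivated FBS, starting at 1 × 10^5 cells/dish. Cells were counted on a Coulter Counter after 3 or 6 days of exposure. IC50 values were read from dose-response data and averaged over two or more separate experiments.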

[10] = biological target: T2, RI, regulatory subunit of cAMP-dependent protein kinase type I (Oryctolagus cuniculus, UniProt G1TDN4); settings: cited from earlier work
T2 construct: from tissue

[11] = biological target: T3, Protein kinase type II (cAKII) (Bos taurus, UniProt P00515); experiment: Protein kinase activation (Table 15); type: biochemical, bovine (heart); settings: half-maximum activation; U. M.: unmeasurable
T3 construct: prepared from rabbit skeletal muscle and bovine heart; from tissue; host or cells: bovine heart
Description: as §3, §4, §5, §6, §7

[12] = system: LS-174T human colon carcinoma cells; experiment: Additive growth inhibition with 8-Cl-cAMP (Table 19); type: cell-based; settings: Homo sapiens, LS174T, 96 h; 1 μM; 4 days
Description: The medium was changed every 48 hours.
At desired times, cell counts were performed in duplicate on a Coulter Counter after harvesting cells with gentle trypsinization.
The analogues were added at 24

[13] = Table 11, 8-Cl-cAMP 10 μM, 8-Cl-adenosine 5 μM, DBcAMP 500 μM, control 100
[14] = no test described at this place

T2 sequence (G1TDN4 1-381): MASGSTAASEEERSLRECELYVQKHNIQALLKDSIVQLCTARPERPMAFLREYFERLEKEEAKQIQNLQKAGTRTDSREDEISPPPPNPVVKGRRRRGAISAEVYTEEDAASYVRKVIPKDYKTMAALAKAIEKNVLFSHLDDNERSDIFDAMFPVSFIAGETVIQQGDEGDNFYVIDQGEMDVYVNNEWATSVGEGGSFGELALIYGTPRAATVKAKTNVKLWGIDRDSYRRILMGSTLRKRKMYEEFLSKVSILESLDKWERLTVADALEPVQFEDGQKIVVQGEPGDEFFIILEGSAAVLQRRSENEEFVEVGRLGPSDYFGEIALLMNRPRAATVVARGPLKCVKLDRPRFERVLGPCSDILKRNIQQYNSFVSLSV
T1 sequence (G1TDN4 1-381): as above
T3 sequence (P00515 2-401 limits assumed): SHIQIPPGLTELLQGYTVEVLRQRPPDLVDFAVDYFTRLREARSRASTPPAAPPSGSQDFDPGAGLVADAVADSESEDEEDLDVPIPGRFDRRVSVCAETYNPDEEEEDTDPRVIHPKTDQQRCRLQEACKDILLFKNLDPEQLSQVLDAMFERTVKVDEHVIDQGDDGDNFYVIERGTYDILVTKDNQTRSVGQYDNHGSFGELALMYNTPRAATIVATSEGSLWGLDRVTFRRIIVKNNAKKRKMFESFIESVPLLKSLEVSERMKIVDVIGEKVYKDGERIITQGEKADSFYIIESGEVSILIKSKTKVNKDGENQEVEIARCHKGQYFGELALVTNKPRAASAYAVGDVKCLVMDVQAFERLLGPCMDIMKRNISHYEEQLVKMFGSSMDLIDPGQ

CCCC(=O)Nc1ncnc2c1ncn2[C@@H]1O[C@@H]2COP(=O)(O)O[C@H]2[C@H]1OC(=O)CCC [DBcAMP, N^6, O^2' -dibutyryl-cAMP, reference compound]
DNA synthesis ([1]; added during first eight hours after serum addition): not delayed
DNA synthesis ([1]; added more than eight hours after serum addition): inhibitory
pIC50 [2]: 3.00 to 3.30
tumor response (DMBA-1 mammary carcinoma; Table 5): completely resistant
Change in mean tumor volume (cm^3) (DMBA-1 mammary carcinoma): 2.60 cm^3
Change in mean tumor volume (%) (DMBA-1 mammary carcinoma): 9%
tumor response (NMU-2 mammary carcinoma; Table 5): completely resistant
Change in mean tumor volume (cm^3) (NMU-2 mammary carcinoma): 2.15 cm^3
Change in mean tumor volume (%) (NMU-2 mammary carcinoma): 100%
inhibition at 500 µM (MCF-7 [3]): 20%
activity at 500 µM (MCF-7 [3]; [13]): 80%
pIC50 (HL-60): 3.30
tumor biochemistry during growth arrest [4]: estrogen binding decreases whereas cAMP binding and cAMP-dependent protein kinase activity increase; also recorded: sharp reduction of the translated p21 protein
tumor size ([5]; 3-6 mg/kg iv, five hours daily, days 1-9 and 47-56): The tumor size plateaued and even decreased during both infusion periods
tumor histology ([5]; biopsied on days 2, 14, and 60): evidence of differentiation
tumorigenicity (neuroblastoma cells): decreased; also recorded: unaltered

Nc1ncnc2c1nc(Cl)n2[C@@H]1O[C@@H]2COP(=O)(O)O[C@H]2[C@H]1O [8-Cl-cAMP, 8-chloro-adenosine 3': 5'-monophosphate]
% Cell Population in G1 (MCF-7 [6]): 53%
% Cell Population in G2M (MCF-7 [6]): 25%
% Cell Population in S (MCF-7 [6]): 22%
cell cycle phase distribution (MCF-7 [6]): not appreciably different
Activation Constant (Ka), cAKI [7]: 1.8 × 10^-8
pIC50 [2]: 4.70 to 5.30
effect on protein kinase isozyme type I ([8]; literature): drastically downregulates type I protein kinase
effect on protein kinase isozyme type II ([8]; literature): upregulating type II protein kinase in its holoenzyme form
effect on RIIβ isoform [8, 14]: upregulates the RII β, isoform
effect on RIα isoform [8, 14]: downregulates the RIα isoform
antitumor effect (L1210 leukemia; 104 mg/kg bolus, seven consecutive days): no antitumor effect
increase in mean life span (L1210 leukemia; constant infusion 104 mg/kg/day, five days): 37%
Change in mean tumor volume (cm^3) (DMBA-1 mammary carcinoma): 1.60 cm^3
Change in mean tumor volume (%) (DMBA-1 mammary carcinoma): 61%
inhibition of tumor growth (DMBA-1 mammary carcinoma; pellet, seven days): 40-50%
Change in mean tumor volume (cm^3) (NMU-2 mammary carcinoma): 1.10 cm^3
Change in mean tumor volume (%) (NMU-2 mammary carcinoma): 51%
inhibition of tumor growth (NMU-2 mammary carcinoma; pellet, seven days): 40-50%
growth inhibitory potency ([9]; HL-60): potent growth inhibitor of HL-60 cells
pIC50 ([9]; HL-60, 72 h, read-out: Growth inhibition (IC50), Day 3): 5.30
pIC50 ([9]; HL-60, 144 h, read-out: Growth inhibition (IC50), Day 6): 6.40
inhibition at 10 µM (MCF-7 [3]): 57%
activity at 10 µM (MCF-7 [3]; 10 μM, 3 days, control 100 (Table 3)): 40%
activity at 10 µM (MCF-7 [3]; [13]): 43%
pIC50 (HL-60): 5.00
relative affinity Ki (cAMP)/Ki (analogue), RI Site A ([10]; Site A (Site 2), literature): 2.71
relative affinity Ki (cAMP)/Ki (analogue), RI Site B ([10]; Site B (Site 1), literature): 2.0
site selectivity of binding to RI [10]: binds to site 2 of the RI receptor
Activation Constant (Ka), cAKII [11]: 1.0 × 10^-7
inhibition at 1 µM [12]: 30%
